The assay concerns the target human PCSK9 (Homo sapiens, UniProt Q8NBP7). In words: PCSK9 ligand binding TR-FRET assay (interference with binding of human PCSK9 to human LDLR). The following applies: for Max % inhibition: PCSK9 FRET assay, efficacy (Amax), 100% = 1 uM unlabeled human PCSK9, 0% = DMSO. On the procedure: The PCSK9 binding of the compounds of the disclosure were measured using a time resolved fluorescence resonance energy transfer (TR-FRET) assay. This time resolved fluorescence resonance energy transfer (TR-FRET) assay measures the ability of a compound of the present disclosure to interfere with the binding of human PCSK9 to human LDLR, providing measures of both potency (IC50) and efficacy (Amax).
These solutions were pipetted into columns 1 and 11 of the compound plate. Threefold serial dilutions were generated in columns 2-10 and 12-20 of the compound plate by transferring 10 uL into 20 uL of DMSO. Columns 21 and 22 of the compound plate were negative controls containing DMSO alone.
An intermediate plate was generated in a Greiner V bottom plate by transferring 8 uL from each well of the master plate into a corresponding well containing 92 uL of assay buffer and mixing thoroughly.
A Proxi plate-low volume assay plate was used for the assay. […] For the positive control wells in columns 23 and 24 of the plate, 5 uL of unlabeled human PCSK9 was added at 4 uM in assay buffer containing 8% DMSO. Following a 30 minute incubation, 5 uL of 4 nM Human LDLR extracellular domain-Europium Kryptate was added and the mixture was incubated for an additional 2 hours.
The FRET ratio (FRET/Europium) was used for calculations.
Data is expressed as percent inhibition: (value−0%)/(100%−0%).

Where [1] appears, read: TR-FRET, human PCSK9 Alexa Fluor 647 / human LDLR extracellular domain-Europium Kryptate, read-out: PCSK9 FRET Assay IC50.

pIC50: −log10 of the molar value. Read-outs that look alike come from different tables or passages of the source.

For the molecule `COC[C@@H]1NC(=O)[C@H](C)N(Cc2ccc(Cl)cc2Oc2ccc(-c3cncc(C4CCC(NCCF)CC4)c3)cc2)C(=O)C[C@@H](Cc2ccccc2)C(=O)N(C)[C@@H](C)CNC(=O)C[C@H](Cc2ccc(Cl)cc2)N(C)C1=O` (stereo partly shown), the negative logarithm of the IC50 (pIC50) is 8.57.

The molecule `COC[C@@H]1NC(=O)[C@H](C)N(Cc2ccc(Cl)cc2Oc2ccc(-c3cncc(C4CCN(CCF)CC4)c3)cc2)C(=O)C[C@@H](Cc2ccccc2)C(=O)N(C)[C@@H](C)CNC(=O)C[C@H](Cc2ccc(Cl)cc2)N(C)C1=O` gave a pIC50 of 8.49.

Consider `COC[C@@H]1NC(=O)C(C)N(Cc2ccc(Cl)cc2Oc2ccc(-c3cnc(CN(C)C)n3C)cc2)C(=O)C[C@@H](Cc2ccccc2)C(=O)N(C)[C@H]2CCCC[C@@H]2NC(=O)C[C@H](Cc2ccc(Cl)cc2)N(C)C1=O` (single isomer, unassigned) [Compound 58], for which the Max % inhibition came to 103.43%. Besides, under setting [1], the pIC50 was 8.03.

On to `COC[C@@H]1NC(=O)[C@H](CCN)N(Cc2ccc(Cl)cc2Oc2ccc(-c3cnc(CN(C)C)n3C)cc2)C(=O)C[C@@H](Cc2ccccc2)C(=O)N(C)[C@H]2CCCC[C@@H]2NC(=O)C[C@H](Cc2ccc(Cl)cc2)N(C)C1=O` (single isomer, unassigned) [Compound 109], for which the Max % inhibition is 76.18%. Also, under setting [1], the pIC50 was 8.12.

`COC[C@@H]1NC(=O)C(CCN)N(Cc2ccc(Cl)cc2Oc2ccc(-c3cnc(CN(C)C)n3C)cc2)C(=O)C[C@@H](Cc2ccccc2)C(=O)N(C)[C@H]2CCCC[C@@H]2NC(=O)C[C@H](Cc2ccc(Cl)cc2)N(C)C1=O` (single isomer, unassigned) [Compound 204]: the Max % inhibition amounted to 83.07%. Under setting [1], the pIC50 is 6.54.

As for `COC[C@@H]1NC(=O)[C@H](C)N(Cc2ccc(Cl)cc2Oc2ccc(-c3cnc(CN4CCCC4)n3C)cc2)C(=O)C[C@@H](Cc2ccccc2)C(=O)N(C)C2CCOCC2NC(=O)C[C@H](Cc2ccc(Cl)cc2)N(C)C1=O` (single isomer, unassigned) [Compound 274], the Max % inhibition is given as 93.20%. Also, the negative logarithm of the IC50 (pIC50) under setting [1] was 8.85.

As for `COC[C@@H]1NC(=O)[C@H](C)N(Cc2ccc(Oc3ccc(-c4cnc(CN(C)C)n4C)cc3)cc2F)C(=O)C[C@@H](Cc2ccccc2)C(=O)N(C)C2CCCCC2NC(=O)C[C@H](Cc2ccc(Cl)cc2)N(C)C1=O` (stereo in doubt) [Compound 15, (4S,7S,10S,14R,16aS,20aS)-14-benzyl-4-(4-chlorobenzyl)-11-(4-(4-(2-((dimethylamino)methyl)-1-methyl-1H-imidazol-5-yl)phenoxy)-2-fluorobenzyl)-7-(methoxymethyl)-5,10,16-trimethylhexadecahydrobenzo[l][1,4,7,11,14]pentaazacyclooctadecine-2,6,9,12,15(3H)-pentaone], the Max % inhibition is 48.77%. Under setting [1], the pIC50 was 6.48.

Take `COC[C@@H]1NC(=O)[C@H](CC(=O)N2CC(C)(O)C2)N(Cc2ccc(Cl)cc2Oc2ccc(-c3cnc(CN(C)C)n3C)cc2)C(=O)C[C@@H](Cc2ccccc2)C(=O)N(C)C2CCCCC2NC(=O)C[C@H](Cc2ccc(Cl)cc2)N(C)C1=O` (stereo in doubt) [Compound 52, (4S,7S,10S,14R,16aS,20aS)-14-benzyl-11-(4-chloro-2-(4-(2-((dimethylamino)methyl)-1-methyl-1H-imidazol-5-yl)phenoxy)benzyl)-4-(4-chlorobenzyl)-10-(2-(3-hydroxy-3-methylazetidin-1-yl)-2-oxoethyl)-7-(methoxymethyl)-5,16-dimethylhexadecahydrobenzo[l][1,4,7,11,14]pentaazacyclooctadecine-2,6,9,12,15(3H)-pentaone]: the Max % inhibition is 104.32%. Moreover, under setting [1], the negative-log IC50 (pIC50) was 8.82.

Consider `COC[C@@H]1NC(=O)[C@H](C)N(Cc2ccc(Cl)cc2Oc2ccc(-c3cnc(C(C)N4CCCC4)n3C)cc2)C(=O)C[C@@H](C)C(=O)N(C)[C@@H](C)CNC(=O)C[C@H](Cc2ccc(Cl)cc2)N(C)C1=O` (stereo in doubt) [Compound 103, (2S,5S,8S,13S,16R)-1-(4-chloro-2-(4-(1-methyl-2-((S)-1-(pyrrolidin-1-yl)ethyl)-1H-imidazol-5-yl)phenoxy)benzyl)-8-(4-chlorobenzyl)-5-(methoxymethyl)-2,7,13,14,16-pentamethyl-1,4,7,11,14-pentaazacyclooctadecane-3,6,10,15,18-pentaone], for which the Max % inhibition turned out to be 106.00%. The pIC50 under setting [1] is 8.00.

Turning to `COC[C@@H]1NC(=O)[C@H](CC(=O)N2CC3(COC3)C2)N(Cc2ccc(Cl)cc2Oc2ccc(-c3cnc(CN(C)C)n3C)cc2)C(=O)C[C@@H](Cc2ccccc2)C(=O)N(C)C2CCCCC2NC(=O)C[C@H](Cc2ccc(Cl)cc2)N(C)C1=O` (stereo in doubt) [Compound 106, (4S,7S,10S,14R,16aS,20aS)-14-benzyl-11-(4-chloro-2-(4-(2-((dimethylamino)methyl)-1-methyl-1H-imidazol-5-yl)phenoxy)benzyl)-4-(4-chlorobenzyl)-7-(methoxymethyl)-5,16-dimethyl-10-(2-oxo-2-(2-oxa-6-azaspiro[3.3]heptan-6-yl)ethyl)hexadecahydrobenzo[l][1,4,7,11,14]pentaazacyclooctadecine-2,6,9,12,15(3H)-pentaone], the Max % inhibition is 106.45%. Further, the pIC50 under setting [1] is 8.70.

Take `C[C@H]1CNC(=O)C[C@H](Cc2ccc(Cl)cc2)N(C)C(=O)[C@H](CO)NC(=O)[C@H](C)N(Cc2ccccc2OCC(=O)N2Cc3cccnc3C2)C(=O)C[C@@H](Cc2ccccc2)C(=O)N1C` (stereo in doubt) [Compound 143, (2S,5S,8S,13S,16R)-16-benzyl-8-(4-chlorobenzyl)-5-(hydroxymethyl)-2,7,13,14-tetramethyl-1-(2-(2-oxo-2-(5H-pyrrolo[3,4-b]pyridin-6(7H)-yl)ethoxy)benzyl)-1,4,7,11,14-pentaazacyclooctadecane-3,6,10,15,18-pentaone]: the Max % inhibition is given as 49.36%. In addition, under setting [1], the pIC50 is 6.11.

As for `COC[C@@H]1NC(=O)[C@H](C)N(Cc2ccc(Cl)cc2Oc2ccc(-c3cnc(CN(C)C)n3C)cc2)C(=O)C[C@H](Cn2cccn2)C(=O)N(C)[C@H]2CCCC[C@@H]2NC(=O)C[C@H](Cc2ccc(Cl)cc2)N(C)C1=O` [Compound 2, (4S,7S,10S,14R,16aS,20aS)-14-((1H-pyrazol-1-yl)methyl)-11-(4-chloro-2-(4-(2-((dimethylamino)methyl)-1-methyl-1H-imidazol-5-yl)phenoxy)benzyl)-4-(4-chlorobenzyl)-7-(methoxymethyl)-5,10,16-trimethylhexadecahydrobenzo[l][1,4,7,11,14]pentaazacyclooctadecine-2,6,9,12,15(3H)-pentaone], the Max % inhibition is listed as 95.16%. Under setting [1], the pIC50 was 6.76.

Take `CNCC[C@H]1C(=O)N[C@@H](COC)C(=O)N(C)[C@@H](Cc2ccc(Cl)cc2)CC(=O)N[C@H]2CCCC[C@@H]2N(C)C(=O)[C@H](Cc2ccccc2)CC(=O)N1Cc1ccc(Cl)cc1Oc1ccc(-c2cnc(CN(C)C)n2C)cc1` [Compound 3, (4S,7S,10S,14R,16aS,20aS)-14-benzyl-11-(4-chloro-2-(4-(2-((dimethylamino)methyl)-1-methyl-1H-imidazol-5-yl)phenoxy)benzyl)-4-(4-chlorobenzyl)-7-(methoxymethyl)-5,16-dimethyl-10-(2-(methylamino)ethyl)hexadecahydrobenzo[l][1,4,7,11,14]pentaazacyclooctadecine-2,6,9,12,15(3H)-pentaone]: the Max % inhibition is on record as 95.68%. Besides, the pIC50 under setting [1] was 8.89.

On to `COC[C@@H]1NC(=O)[C@H](CCCNC(=O)OC(C)(C)C)N(Cc2ccc(Cl)cc2Oc2ccc(-c3cnc(CN(C)C)n3C)cc2)C(=O)C[C@@H](Cc2ccccc2)C(=O)N(C)[C@@H](C)CNC(=O)C[C@H](Cc2ccc(Cl)cc2)N(C)C1=O` [Compound 4, tert-butyl (3-((2S,5S,8S,13S,16R)-16-benzyl-1-(4-chloro-2-(4-(2-((dimethylamino)methyl)-1-methyl-1H-imidazol-5-yl)phenoxy)benzyl)-8-(4-chlorobenzyl)-5-(methoxymethyl)-7,13,14-trimethyl-3,6,10,15,18-pentaoxo-1,4,7,11,14-pentaazacyclooctadecan-2-yl)propyl)carbamate], for which the Max % inhibition stood at 97.50%. Further, the pIC50 under setting [1] is 8.54.

In the case of `COC[C@@H]1NC(=O)[C@H](C)N(Cc2ccc(Cl)cc2Oc2ccc(-c3cnc(CN(C)C)n3C)cc2)C(=O)C[C@@H](C)C(=O)N(C)[C@@H](CC2CC2)CNC(=O)C[C@H](Cc2ccc(Cl)cc2)N(C)C1=O` [Compound 5, (2S,5S,8S,13S,16R)-1-(4-chloro-2-(4-(2-((dimethylamino)methyl)-1-methyl-1H-imidazol-5-yl)phenoxy)benzyl)-8-(4-chlorobenzyl)-13-(cyclopropylmethyl)-5-(methoxymethyl)-2,7,14,16-tetramethyl-1,4,7,11,14-pentaazacyclooctadecane-3,6,10,15,18-pentaone], the Max % inhibition was determined as 83.48%. Besides, under setting [1], the pIC50 was 8.02.

The values are drawn from US20230089867A1, “CYCLIC PENTAMER COMPOUNDS AS PROPROTEIN CONVERTASE SUBTILISIN/KEXIN TYPE 9 (PCSK9) INHIBITORS FOR THE TREATMENT OF METABOLIC DISORDER” (Novartis AG, priority 2018, published 2023).
